For 15 compounds, IC50 results are on record in patent US11186577B2, “Vasopressin receptor antagonists and products and methods related thereto” (BlackThorn Therapeutics, Inc., priority 2017, dated 2021).

Molecules are shown by their SMILES. Like-named read-outs stand apart in the source and are kept apart here.

Format in all cases: cell-based
Test [1] addresses human Arginine Vasopressin Receptor 1a (AVPR1a) (Homo sapiens (Human), UniProt P37288). Briefly: Vasopressin V1A receptor antagonist assay (AVP-evoked calcium, FLIPR, CHO-AVPR1a cells). The gist of the method: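 CHO cells expressing human AVPR1a, Calcium-6 dye loaded 60-90 min, preincubated with compound 15 min at 37° C., then challenged with AVP at its daily-determined EC80. FLIPR fluorescence; 10-point 1:3 series from 3 μM, duplicates.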

The target in test [2] is human Oxytocin Receptor (hOTR) (Homo sapiens (Human), UniProt P30559). In words: Oxytocin receptor antagonist assay (oxytocin-evoked calcium, FLIPR, CHEM-1-hOTR cells). The conditions noted are these: read-out: OT IC50. As to the method:
This assay was performed in CHEM-1 cells expressing the human Oxytocin Receptor (hOTR) to determine the inhibitory effect of the compounds of the invention on the human Oxytocin receptor. Oxytocin evokes an increase in intracellular calcium in CHEM-1-hOTR cells which is measured in a fluorescence assay on the FLIPR^TETRA using calcium sensitive dyes. Test compounds were assessed for their ability to affect the magnitude of the response to oxytocin, with antagonists showing a concentration-dependent reduction in the oxytocin-mediated fluorescence.
CHEM-1-hOTR ready was used to assay frozen cells (Eurofins #HTS090RTA) which are supplied with a proprietary Media Component.
Cells were thawed in a 37° C. water bath and diluted with the supplied Media Component to a final volume of 10 ml. The cell suspension was centrifuged at 1000 rpm for 3 min at room temperature and the supernatant was discarded. The cell pellet was resuspended in Media Component (10.5 ml) and the cells (25 μL) were dispensed into a poly-D-lysine coated black, clear bottomed, 384-well plate. The plates were incubated overnight at 37° C., 5% CO2.
(§1) At the start of each assay day the potency of oxytocin was assessed and an EC80 concentration was determined for subsequent compound profiling. Assays were performed using a two-step addition protocol on the FLIPR^TETRA; first addition of 5 μl of control or test compound at 10× final in assay buffer with 15 min incubation at 37° C., 5% CO2 followed by 10 μl of oxytocin at 6× final concentration in assay buffer. Changes in fluorescence were monitored for 3 min after both additions on the FLIPR^TETRA using 470-495 nm excitation and 515-575 nm emission wavelengths. The assay buffer consisted of HBSS (+Ca/+Mg) supplemented with 20 mM HEPES, and for the preparation of the oxytocin agonist only, 0.1% w/v bovine serum albumin. The assay was initiated by the removal of growth media from the cells and replaced with 45 μl of Calcium-6 dye (Molecular Devices) prepared at 1× in assay buffer. Cells were loaded with dye for 60-90 min at 37° C., 5% CO2 before initiation of the FLIPR^TETRA protocol. […] For compound profiling, test compounds were first serially diluted in DMSO (10-point curve, 1:3 dilutions) then diluted 33.3-fold in assay buffer prior to addition to the dye loaded cells on the FLIPR^TETRA. At the end of the incubation period 10 μl of oxytocin in assay buffer containing 0.1% BSA was added at the previously determined EC80 concentration.
In-plate controls for the assay include a L-368,899 concentration-response curve as the reference OTR antagonist and an oxytocin concentration-response curve to confirm the reproducibility of the EC80 used for the compound challenge.

The target of test [3] is human Arginine Vasopressin Receptor 1b (AVPR1b) (Homo sapiens (Human), UniProt P47901). In words: Vasopressin V1B receptor antagonist assay (AVP-evoked calcium, FLIPR, CHO-AVPR1b cells). The procedure:
The purpose of the assay is to determine the inhibitory effect of synthesized compounds on the Vasopressin V1b receptor. The assay was performed in Chinese Hamster Ovary (CHO) cells expressing the human Arginine Vasopressin Receptor 1b (AVPR1b). Arginine Vasopressin (AVP) evokes an increase in intracellular calcium in CHO-AVPR1b cells which is measured in a fluorescence assay on the FLIPR^TETRA using calcium sensitive dyes. Test compounds were assessed for their ability to affect the magnitude of the response to AVP, with antagonists showing a concentration-dependent reduction in the AVP-mediated fluorescence.
CHO-AVPR1b cells were maintained in routine culture in T175 Flasks at 37° C., 5% CO2. The growth medium consisted of Ham's F12 media supplemented with 10% v/v fetal bovine serum, 1× non-essential amino acids, and 0.4 mg/ml Geneticin G418.
Cells were harvested from T175 flasks when they were 80-90% confluent by first washing the cell monolayer with PBS and then dissociated using trypsin 0.05%/EDTA (3 mL for a T175 Flask). The flasks were incubated at room temperature until the cells detached. To the cell suspension, 10 ml of growth media was added and the cell density determined using the Vi-Cell automated cell counter. The cells were spun at 1000 rpm for 3 minutes, then the supernatant was carefully removed and discarded. The cell pellet was re-suspended at 6.0e^5 cells/ml in growth media. 25 μL of cells in growth media was dispensed into each well (15,000 cells per well) of a poly-D-lysine coated black, clear bottomed, 384-well plate. The plates were incubated at 37° C., 5% CO2 overnight.
as §1, with “day,” for “day”, “AVP is” for “oxytocin was”, “concentration” for “concentration was”, “AVP” for “oxytocin”, “replacement” for “replaced”
In-plate controls for the assay include a Nelivaptan concentration-response curve as the reference V1b antagonist and an AVP concentration-response curve to confirm the reproducibility of the EC80 used for the compound challenge.

Test [4] deals with human Arginine Vasopressin Receptor V2 (AVPR2) (Homo sapiens (Human), UniProt P30518). Briefly: Vasopressin V2 receptor antagonist assay (cAMP TR-FRET, 1321N1 cells). As to the method: The purpose of the assay was to determine the inhibitory effect of synthesized compounds on the Vasopressin receptor 2. […] Arginine Vasopressin (AVP) evokes an increase in intracellular cAMP in these cells which is measured in a TR-FRET assay using a Europium cAMP tracer and ULight labelled antibody reagents contained in a LANCE Ultra cAMP kit (Perkin Elmer #TRF0263). […] Test compounds were assessed for their ability to affect the magnitude of the response to AVP, with antagonists showing a concentration-dependent decrease in the AVP-mediated reduction in TR-FRET signal.
cAMPZen V2 assay ready cells were thawed at 37° C. and resuspended directly from frozen in 9 ml growth medium consisting of DMEM supplemented with 10% v/v fetal bovine serum, 1× non-essential amino acids, and 1 mM sodium pyruvate. Cells were spun at 1000 rpm for 3 minutes and the supernatant was carefully removed and discarded. The pellet was resuspended in 5 ml stimulation buffer and the cell density determined using the Vi-Cell automated cell counter. The cell suspension was diluted to a 0.2×10^6/ml suspension ready for plating. […] Stimulation buffer consisted of HBSS (+Ca/+Mg) supplemented with 5 mM HEPES, 0.1% BSA stabiliser and 0.5 mM IBMX.
At the start of each assay day the potency of AVP was assessed and an EC80 concentration determined for subsequent compound profiling. Assays were performed by first an addition of 2.5 μl of control or test compound at 4× final concentration in stimulation buffer followed by 2.5 μl of AVP at 4× final concentration in stimulation buffer. After a 1 hour reaction, detection reagents were added by first an addition of 5 μl EU-cAMP tracer, followed by 5 μl ULight-anti-cAMP both diluted as per the manufacturer's instructions. […] For compound profiling, test compounds were dispensed by the Labcyte Echo (10-point curve, 1:3 dilutions) in a target 0.1 μl volume then diluted 750-fold in stimulation buffer containing 3% DMSO prior to addition to the cells. At the end of the incubation period, 2.5 μl of AVP in stimulation buffer was added at the previously determined EC80 concentration.
In general terms: TR-FRET usually uses a lanthanide donor and a delayed reading to cut background.

Sequence of human Arginine Vasopressin Receptor 1b (AVPR1b) (P47901 whole entry): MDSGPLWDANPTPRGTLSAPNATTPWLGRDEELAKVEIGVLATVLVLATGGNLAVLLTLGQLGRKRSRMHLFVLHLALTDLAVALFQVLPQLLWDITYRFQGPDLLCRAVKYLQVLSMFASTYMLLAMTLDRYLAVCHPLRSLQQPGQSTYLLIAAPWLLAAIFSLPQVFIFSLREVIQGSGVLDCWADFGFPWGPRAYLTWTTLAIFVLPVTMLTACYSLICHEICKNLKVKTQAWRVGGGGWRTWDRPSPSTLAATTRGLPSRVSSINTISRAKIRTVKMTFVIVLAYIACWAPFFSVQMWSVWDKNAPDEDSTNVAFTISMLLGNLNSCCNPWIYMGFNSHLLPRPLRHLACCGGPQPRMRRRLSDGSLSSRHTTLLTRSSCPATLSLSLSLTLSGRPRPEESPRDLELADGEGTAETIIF
Sequence of human Oxytocin Receptor (hOTR) (P30559 whole entry): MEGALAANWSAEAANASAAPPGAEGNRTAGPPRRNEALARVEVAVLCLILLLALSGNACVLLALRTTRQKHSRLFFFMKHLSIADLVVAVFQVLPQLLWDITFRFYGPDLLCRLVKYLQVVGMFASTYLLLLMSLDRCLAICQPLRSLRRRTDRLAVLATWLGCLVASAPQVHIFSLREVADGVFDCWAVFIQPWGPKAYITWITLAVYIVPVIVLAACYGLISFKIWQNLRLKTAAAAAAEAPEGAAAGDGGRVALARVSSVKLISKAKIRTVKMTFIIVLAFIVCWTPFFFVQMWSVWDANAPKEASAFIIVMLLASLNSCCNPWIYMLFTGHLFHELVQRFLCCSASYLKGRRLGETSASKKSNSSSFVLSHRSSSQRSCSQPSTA
Sequence of human Arginine Vasopressin Receptor 1a (AVPR1a) (P37288 whole entry): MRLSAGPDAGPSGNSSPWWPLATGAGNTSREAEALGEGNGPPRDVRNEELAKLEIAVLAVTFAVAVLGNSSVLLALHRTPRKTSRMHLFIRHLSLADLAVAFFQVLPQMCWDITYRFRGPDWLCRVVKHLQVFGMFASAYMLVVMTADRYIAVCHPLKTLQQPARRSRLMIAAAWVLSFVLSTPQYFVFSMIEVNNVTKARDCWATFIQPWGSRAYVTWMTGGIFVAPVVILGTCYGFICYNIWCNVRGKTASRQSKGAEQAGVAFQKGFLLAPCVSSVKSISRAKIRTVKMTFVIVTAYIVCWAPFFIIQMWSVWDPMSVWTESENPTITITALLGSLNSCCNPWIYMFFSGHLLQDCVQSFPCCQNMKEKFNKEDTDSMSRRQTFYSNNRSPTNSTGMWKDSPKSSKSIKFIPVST
Sequence of human Arginine Vasopressin Receptor V2 (AVPR2) (P30518 whole entry): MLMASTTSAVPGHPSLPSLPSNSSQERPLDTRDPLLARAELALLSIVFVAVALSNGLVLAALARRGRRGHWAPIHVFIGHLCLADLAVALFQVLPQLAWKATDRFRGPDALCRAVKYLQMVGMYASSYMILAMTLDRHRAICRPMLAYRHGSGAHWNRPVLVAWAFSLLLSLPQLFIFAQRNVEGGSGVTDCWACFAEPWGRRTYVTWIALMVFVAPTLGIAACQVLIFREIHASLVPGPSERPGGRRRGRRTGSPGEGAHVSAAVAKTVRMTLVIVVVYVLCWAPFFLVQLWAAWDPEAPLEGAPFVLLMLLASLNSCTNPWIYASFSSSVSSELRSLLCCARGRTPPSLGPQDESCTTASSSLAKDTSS

As usually defined, the IC50 is the midpoint of a concentration-inhibition curve. Take `CC1c2nnc(C3CC4(C3)CN(c3ncccn3)C4)n2-c2ccc(Cl)cc2CN1C(=O)OC(C)(C)CF` (stereo not drawn) [compound 196]: the results for the 50% inhibitory concentration (IC50) in test [1] (read-out: V1a IC50), in test [2] and in test [3] were less than 100 nM, greater than 1000 nM and greater than 1000 nM, respectively.
Turning to `CC(C)OC(=O)N1Cc2cc(Cl)ccc2-n2c(C3CC4(C3)CN(c3cccc(C#N)n3)C4)nnc2C1C` (single isomer, unassigned) [Cpd 204A], the half-inhibitory concentration (IC50) in test [1] (read-out: V1a IC50) was less than 100 nM; in test [2] it was 100 to 500 nM; in test [3] it was greater than 1000 nM.
With `CC(C)OC(=O)N1Cc2cc(Cl)ccc2-n2c(C3CC4(C3)CN(c3cccc(C#N)n3)C4)nnc2C1C` (single isomer, unassigned) [Cpd 204B], the concentration for half-maximal inhibition (IC50) in test [1] (read-out: V1a IC50) is 100 to 500 nM; in test [2], greater than 1000 nM; in test [3], greater than 1000 nM.
As to `CC1c2nnc(C3CC4(C3)CN(c3ncccn3)C4)n2-c2ccc(Cl)cc2CN1C(=O)OC1(C)CC1` (single isomer, unassigned) [Cpd 205B], the 50% inhibitory concentration (IC50) in test [1] (read-out: V1a IC50), in test [2] and in test [3] was greater than 1000 nM each time.
With `CC1c2nnc(C3CC4(C3)CN(c3ccc(F)cn3)C4)n2-c2ccc(Cl)cc2CN1C(=O)OC(C)(C)CF` (single isomer, unassigned) [Cpd 206B], the 50% inhibitory concentration (IC50) is 100 to 500 nM in test [1] (read-out: V1a IC50), greater than 1000 nM in test [2] and greater than 1000 nM in test [3].
For `Cc1nc(N2CC3(CC(c4nnc5n4-c4ccc(Cl)cc4CN(C4CC4)C5)C3)C2)ccc1F` [compound 229], the half-maximal inhibitory concentration (IC50) is less than 100 nM in test [1] (read-out: V1a IC50), less than 100 nM in test [4] and 500 to 1000 nM in test [2].
As for `COC(=O)N1Cc2cc(Cl)ccc2-n2c(C3CC4(C3)CN(c3ncccn3)C4)nnc2C12CC2` [compound 199], the IC50 in test [1] (read-out: V1a IC50) was less than 100 nM; in test [2] it was greater than 1000 nM; in test [3] it was greater than 1000 nM.
For `CC1c2nnc(C3CC4(C3)CN(c3ccc(F)cn3)C4)n2-c2ccc(Cl)cc2CN1C(=O)OC(C)(C)CF` (single isomer, unassigned) [Cpd 206A], the IC50 in test [1] (read-out: V1a IC50) was less than 100 nM; in test [2] it was 100 to 500 nM; in test [3], greater than 1000 nM.
With `CC1c2nnc(C3CC4(C3)CN(c3ncccn3)C4)n2-c2ccc(Cl)cc2CN1C(=O)OC1(C)CC1` (single isomer, unassigned) [Cpd 205A], the concentration for half-maximal inhibition (IC50) was less than 100 nM in test [1] (read-out: V1a IC50), 500 to 1000 nM in test [2] and greater than 1000 nM in test [3].
Consider `CCC(=O)N1Cc2cc(Cl)ccc2-n2c(nnc2C2CC3(C2)CN(c2cccnn2)C3)C1` [compound 108], for which the figures for the IC50 in test [1] (read-out: V1a IC50) and in test [2] were less than 100 nM and greater than 1000 nM, respectively.
Consider `COc1ccc(N2CC3(CC(c4nnc5n4-c4ccc(Cl)cc4CN(C)C5)C3)C2)nc1` [compound 11], for which the IC50 in test [1] was 500 to 1000 nM; in test [2], greater than 1000 nM.
For the compound `COc1cccc(N2CC3(CC(c4nnc5n4-c4ccc(Cl)cc4CN(C)C5)C3)C2)n1` [compound 7], the concentration for half-maximal inhibition (IC50) in test [1] was 100 to 500 nM; in test [2], greater than 1000 nM.
`COC(=O)N1Cc2cc(Cl)ccc2-n2c(C3CC4(C3)CN(c3ncncc3F)C4)nnc2C1C` (stereo not drawn) [compound 183]: the IC50 in test [1] and in test [2] was 100 to 500 nM each time.
For the compound `CCC(=O)N1Cc2cc(Cl)ccc2-n2c(nnc2C2CC3(C2)CN(c2ncc(F)cn2)C3)C1` [compound 157], the IC50 in test [1] (read-out: V1a IC50) was less than 100 nM; in test [2] it was greater than 1000 nM.
Turning to `CCOC(=O)N1Cc2cc(Cl)ccc2-n2c(C3CC4(C3)CN(c3nccc(C(F)F)n3)C4)nnc2C1C` (stereo not drawn) [compound 189], the IC50 in test [1] (read-out: V1a IC50) is less than 100 nM; in test [2], greater than 1000 nM.
